“Also recorded” adds a separate entry of the source.
How the values were obtained:
tHDF cells = assay: γH2AX after IR; format: cell-based, human; settings: 24 hours prior to IR; PD0332991 100 nM (6 Gy), 2BrIC 2 μM (0-8 Gy)
Source text: FIG. 5A is a set of grayscale 40× images of phospho-γH2AX foci (nuclear) and phalloidin staining (cytoplasmic) of telomerized human diploid fibroblasts (tHDF) with (bottom row) and without (top row) 6 Gy ionizing radiation (IR). […] Scale bar=50 μm.
N=139 or greater for each condition; box=middle 50%, whiskers=0-25% and 75-100%. Significance determined by Kruskal-Wallis with Dunn post-hoc test for pairwise comparisons (*** p<0.0001).
FIG. 5F is a set of representative phospho-γH2AX (x-axis) dot plots after 0, 2, 4, 6, or 8 gray (Gy) of ionizing radiation with (right-hand column) or without (left-hand column) treatment with the selective cyclin-dependent kinase 4/6 (CDK4/6) inhibitor 2-bromo-12,13-dihydro-5H-indolo[2,3-a]pyrrolo[3,4]carbazole-5,6-dione (2BrIC) at 2 μM for 24 hours prior to exposure to ionizing radiation (IR). Cells that were not treated with 2BrIC were instead treated with vehicle (dimethyl sulfoxide (DMSO)) only. An increased fraction of phospho-γH2AX (x-axis) expressing cells is noted with increased doses of IR in DMSO treated cells.
γH2AX after IR: For γH2AX images, tHDF received 6 Gy IR with or without 24 hours of prior exposure to a CDK inhibitor. […] Images were analyzed for mean nuclear intensities were computed in ImageJ software (developed by the National Institutes of Health, Bethesda, Md., United States of America). […]

[1] = test system: TyrRAS+Ink4a/Arf−/− melanoma; assay: Tumor-bearing mice given 7.5 Gy TBI: tumor growth and mortality; format: in vivo
Procedure: Tumor growth with (open squares) or without (closed diamonds) a single dose of 6-acetyl-8-cyclopentyl-5-methyl-2-(5-piperazin-1-yl-pyridin-2-ylamino)-8H-pyrido-[2,3-d]-pyrimidin-7-one (PD0332991) administered 4 hours prior to 7.5 gray (Gy) total body irradiation (TBI). […] Error bars indicate standard error of the mean.
FIG. 2E is a set of Kaplan-Meyer survival curves showing overall mortality, tumor-specific mortality and mortality to radiation toxicity of tumor bearing mice treated with 7.5 gray (Gy) of total body irradiation (TBI) with (solid line, n=8) or without (dashed line n=11) 6-acetyl-8-cyclopentyl-5-methyl-2-(5-piperazin-1-yl-pyridin-2-ylamino)-8H-pyrido-[2,3-d]-pyrimidin-7-one (PD 0332991) treatment 4 hours prior to ionizing radiation (IR). P-values calculated using the log-rank test.
Young adult (6-12 weeks of age), virgin female C57B1/6 mice were purchased from Jackson Labs (Bar Harbor, Me., United States of America). […] Experiments on tumor-bearing TyrRAS+Ink4a/Arf−/− mice (see Chin et al., Genes & development, 11, 2822-2834 (1997)) were performed in animals fully backcrossed (N>10) to the FVB/n background. Mice were treated as previously described (see Ramsey et al., Cancer Res., 67, 4732-4741 (2007)) with PD 0332991 obtained from Pfizer Inc., (New York, N.Y., United States of America) given by oral gavage at a dose of 150 mg/kg body weight. TyrRAS+Ink4a/Arf−/− mice were serially observed until tumor development. When tumors were about 0.2 cm^2 in size, daily PD 0332991 treatment was begun. […] Tumor-bearing mice were euthanized at the indicated times for morbidity, tumor ulceration, or tumor size >1.5 cm in diameter.
For TBI experiments, mice were irradiated using a ^137Cs source (AECL Gammacell 40 Irradiator, Atomic Energy of Canada Ltd, Mississauga, Ontario, Canada). Delivered doses were at or near the empirically determined LD90 of 7.5 Gy, consistent with prior studies.

bone marrow cells = assay: Bone marrow cellularity, immunophenotypic frequency, apoptosis and viability; format: in vivo, mice; settings: 48 hour treatment
Procedure: For HSPC proliferation experiments, mice received daily oral gavage with PD0332991 for 2 days with 1 mg BrdU intraperitoneal injection every 6 hours for 24 hours prior to sacrifice. BM-MNC harvest and immunophenotyping was performed using RBC lysis, biotin-conjugated Lin-panel incubation (Invitrogen Corporation, Carlsbad, Calif., United States of America), paramagnetic bead-conjugated straptavidin (Miltinyi Biotec, Bergisch Gladbach, Germany) incubation, and magnetic depletion using an AutoMACS (Miltinyi Biotec, Bergisch Gladbach, Germany). At least 2×10^6 Lin-depleted cells per mouse were incubated with fluorescently labeled antibodies against cell surface antigens used to identify hematopoietic progenitor subpopulations as previously described (see Passegue et al., J. Exp. Med., 202, 1599-1611 (2005); and Kiel et al., Cell, 121, 1109-1121 (2005): CD34-FITC, CD16/32-PacificBlue, IL7Ra-PE-Cy5, and cKit-APC-Alexa750 from eBiosciences, Inc. (San Diego, Calif., United States of America); Sca1-PE-Cy7, CD150-PE-Cy5, and CD48-PacificBlue from BioLegend (San Diego, Calif., United States of America); and Aqua Live/Dead viability dye (Invitrogen Corporation, Carlsbad, Calif., United States of America). Streptavidin-PE-TexasRed (Invitrogen Corporation, Carlsbad, Calif., United States of America) was used to confirm efficiency of lineage-depletion. After cell surface staining, cells were fixed, permeabilized, and stained with antibodies against Ki67-FITC, BrdU-APC, and caspase3-PE (BD Biosciences Pharmingen, San Diego, Calif., United States of America).
In all experiments, gating based on isotype controls was used as appropriate. Flow cytometry was performed using a CyAn ADP (Dako, Glostrup, Denmark) and analyzed with FlowJo software (Tree Star, Ashland, Oreg., United States of Ameria). For each bone marrow sample, a minimum of 200,000 cells were analyzed. For cell culture samples, a minimum of 20,000 cells were analyzed.
The effects on immunophenotypic HSPC frequency were validated by other methods.

[2] = test system: mice exposed to total body irradiation
Source text: FIG. 16 is set of bar graphs showing the hematocrit or cell counts of different lineages of blood cells from mice 143-242 days following exposure to a lethal dose (7.5 gray (Gy)) or sub-lethal dose (6.5 Gy) of total body irradiation (TBI). Data for mice treated with 6-acetyl-8-cyclopentyl-5-methyl-2-(5-piperazin-1-yl-pyridin-2-ylamino)-8H-pyrido-[2,3-d]pyrimidin-7-one (PD 0332991) prior to 6.5 Gy TBI is shown in the solid bars and data for mice treated with PD 0332991 prior to 7.5 Gy TBI is shown in the stippled bars. […] Myeloid cell count is the sum of granulocytes and monocytes.

[3] = Serum/plasma levels after oral gavage; format: in vivo, mice
Procedure: Mass Spectrometry: Mice were dosed as described and tail vein nick performed to acquire 30 μL periphal blood. Blood was centrifuged to acquire 10 μL plasma, which was mixed with 100 μL ice cold methanol, centrifuged, and mixed with 10 μL of an internal control. Plasma levels were quantified based on standard curves derived in triplicate from known concentrations of wild type C57Bl/6 female mouse plasma unexposed to the measured drug. Quantification was performed using HPLC separation with triple quadrupole mass spectrometry normalizing results to measurement of the internal standard.

pancreatic islet = settings: same dose and schedule (150 mg/kg daily); cited from earlier work
[4] = test system: TyrRAS+Ink4a/Arf−/− melanoma; settings: mouse, in vivo; cited from earlier work
[5] = treatment 4 hours prior to 7.5 Gy TBI

Row | SMILES | γH2AX formation after IR (tHDF cells) | anti-tumor effect of therapeutic IR ([1]; single dose 4 hours prior to 7.5 Gy TBI) | mortality to radiation toxicity [1, 5] | tumor-related mortality [1, 5] | HSC and MPP frequencies (bone marrow cells) | Lin− or HSC apoptosis or viability (bone marrow cells) | absolute number of lineage negative cells (bone marrow cells) | frequency of oligopotent progenitors (Lin−cKit+Sca1−) (bone marrow cells) | total marrow cellularity (bone marrow cells) | deaths ([2]; 6.5 Gy TBI, followed 210-274 days post-TBI) | deaths among 29 mice surviving acute toxicity ([2]; 7.5 Gy TBI, remaining mice disease free 101-251 days post-TBI) | blood counts on long-term surviving animals vs unirradiated ([2]; long-term after TBI) | myeloproliferative disorder or myelodysplasia ([2]; mouse, in vivo) | persistence of therapeutic serum levels [3] [h] | time until therapeutic serum levels are achieved [3] [min] | proliferation in CDK4/6 dependent normal murine tissues such as the pancreatic islet (pancreatic islet) | tolerability of dose and schedule [4]
1 | O=C1NC(=O)c2c1c1c3ccccc3[nH]c1c1[nH]c3cc(Br)ccc3c21 [Compound 2BrIC, 2-bromo-12,13-dihydro-5H-indolo[2,3-a]pyrrolo[3,4]-carbazole-5,6-dione] | attenuated; also recorded: potently decreases IR-induced DNA damage; also recorded: decreases the induction of phospho-γH2AX expression | – | – | – | – | – | – | – | – | – | – | – | – | – | – | – | –
2 | CC(=O)c1c(C)c2cnc(Nc3ccc(N4CCNCC4)cn3)nc2n(C2CCCC2)c1=O [PD0332991, 6-acetyl-8-cyclopentyl-5-methyl-2-(5-piperazin-1-yl-pyridin-2-ylamino)-8H-pyrido-[2,3-d]-pyrimidin-7-one] | attenuated | does not decrease that anti-tumor effect of therapeutic radiotherapy | does appear to provide protection from radiation toxicity | does not appear to increase tumor-related mortality | relative increase; also recorded: relative enrichment | without altering | did decrease | declined | did not decrease | no deaths | one death of unknown cause at day 99 | comparable | No evidence | 10 to 20 | > 30 | abrogated proliferation | well tolerated without evident toxicity
